Test results from the NIST ThermoML archive (doi:10.1021/je200721d).

Assay: xn = mol fraction of the nth substance listed
Settings: Liquid, Vibrating tube method

CCCCCCCC [octane] + CCCCCC
Settings	mass density [kg/m3]
312.91 K, 1000 kPa, x2 = 0.2199	680.43
312.91 K, 2000 kPa, x2 = 0.2199	681.31
312.91 K, 3000 kPa, x2 = 0.2199	682.24
312.91 K, 4000 kPa, x2 = 0.2199	683.15
312.91 K, 5000 kPa, x2 = 0.2199	684.07
312.91 K, 6000 kPa, x2 = 0.2199	684.99
312.91 K, 7000 kPa, x2 = 0.2199	685.92
312.91 K, 8000 kPa, x2 = 0.2199	686.87
312.91 K, 9000 kPa, x2 = 0.2199	687.8
312.91 K, 10000 kPa, x2 = 0.2199	688.73
312.91 K, 11000 kPa, x2 = 0.2199	689.64
312.91 K, 12000 kPa, x2 = 0.2199	690.55
312.91 K, 13000 kPa, x2 = 0.2199	691.47
312.91 K, 14000 kPa, x2 = 0.2199	692.36
312.91 K, 15000 kPa, x2 = 0.2199	693.23
312.91 K, 16000 kPa, x2 = 0.2199	694.09
312.91 K, 17000 kPa, x2 = 0.2199	694.93
312.91 K, 18000 kPa, x2 = 0.2199	695.75
312.91 K, 19000 kPa, x2 = 0.2199	696.54
312.91 K, 20000 kPa, x2 = 0.2199	697.32
312.91 K, 21000 kPa, x2 = 0.2199	698.1
312.91 K, 22000 kPa, x2 = 0.2199	698.86
312.91 K, 23000 kPa, x2 = 0.2199	699.56
312.91 K, 24000 kPa, x2 = 0.2199	700.29
312.91 K, 25000 kPa, x2 = 0.2199	700.96
313.14 K, 1000 kPa, x2 = 0.1654	682.2
313.14 K, 1000 kPa, x2 = 0.5749	666.9
313.14 K, 1000 kPa, x2 = 0.7995	655.29
313.14 K, 1000 kPa, x2 = 0.9308	647.6
313.14 K, 2000 kPa, x2 = 0.1654	683.1
313.14 K, 2000 kPa, x2 = 0.5749	667.85
313.14 K, 2000 kPa, x2 = 0.7995	656.27
313.14 K, 2000 kPa, x2 = 0.9308	648.65
313.14 K, 3000 kPa, x2 = 0.1654	684.01
313.14 K, 3000 kPa, x2 = 0.5749	668.75
313.14 K, 3000 kPa, x2 = 0.7995	657.26
313.14 K, 3000 kPa, x2 = 0.9308	649.73
313.14 K, 4000 kPa, x2 = 0.1654	684.9
313.14 K, 4000 kPa, x2 = 0.5749	669.74
313.14 K, 4000 kPa, x2 = 0.7995	658.29
313.14 K, 4000 kPa, x2 = 0.9308	650.78
313.14 K, 5000 kPa, x2 = 0.1654	685.84
313.14 K, 5000 kPa, x2 = 0.5749	670.74
313.14 K, 5000 kPa, x2 = 0.7995	659.31
313.14 K, 5000 kPa, x2 = 0.9308	651.85
313.14 K, 6000 kPa, x2 = 0.1654	686.8
313.14 K, 6000 kPa, x2 = 0.5749	671.71
313.14 K, 6000 kPa, x2 = 0.7995	660.34
313.14 K, 6000 kPa, x2 = 0.9308	652.92
313.14 K, 7000 kPa, x2 = 0.1654	687.71
313.14 K, 7000 kPa, x2 = 0.5749	672.72
313.14 K, 7000 kPa, x2 = 0.7995	661.38
313.14 K, 7000 kPa, x2 = 0.9308	654
313.14 K, 8000 kPa, x2 = 0.1654	688.62
313.14 K, 8000 kPa, x2 = 0.5749	673.69
313.14 K, 8000 kPa, x2 = 0.7995	662.44
313.14 K, 8000 kPa, x2 = 0.9308	655.08
313.14 K, 9000 kPa, x2 = 0.1654	689.54
313.14 K, 9000 kPa, x2 = 0.5749	674.66
313.14 K, 9000 kPa, x2 = 0.7995	663.49
313.14 K, 9000 kPa, x2 = 0.9308	656.16
313.14 K, 10000 kPa, x2 = 0.1654	690.46
313.14 K, 10000 kPa, x2 = 0.5749	675.65
313.14 K, 10000 kPa, x2 = 0.7995	664.53
313.14 K, 10000 kPa, x2 = 0.9308	657.23
313.14 K, 11000 kPa, x2 = 0.1654	691.38
313.14 K, 11000 kPa, x2 = 0.5749	676.63
313.14 K, 11000 kPa, x2 = 0.7995	665.56
313.14 K, 11000 kPa, x2 = 0.9308	658.29
313.14 K, 12000 kPa, x2 = 0.1654	692.28
313.14 K, 12000 kPa, x2 = 0.5749	677.6
313.14 K, 12000 kPa, x2 = 0.7995	666.56
313.14 K, 12000 kPa, x2 = 0.9308	659.33
313.14 K, 13000 kPa, x2 = 0.1654	693.17
313.14 K, 13000 kPa, x2 = 0.5749	678.56
313.14 K, 13000 kPa, x2 = 0.7995	667.56
313.14 K, 13000 kPa, x2 = 0.9308	660.36
313.14 K, 14000 kPa, x2 = 0.1654	694.06
313.14 K, 14000 kPa, x2 = 0.5749	679.5
313.14 K, 14000 kPa, x2 = 0.7995	668.54
313.14 K, 14000 kPa, x2 = 0.9308	661.38
313.14 K, 15000 kPa, x2 = 0.1654	694.94
313.14 K, 15000 kPa, x2 = 0.5749	680.41
313.14 K, 15000 kPa, x2 = 0.7995	669.51
313.14 K, 15000 kPa, x2 = 0.9308	662.38
313.14 K, 16000 kPa, x2 = 0.1654	695.81
313.14 K, 16000 kPa, x2 = 0.5749	681.32
313.14 K, 16000 kPa, x2 = 0.7995	670.45
313.14 K, 16000 kPa, x2 = 0.9308	663.36
313.14 K, 17000 kPa, x2 = 0.1654	696.65
313.14 K, 17000 kPa, x2 = 0.5749	682.2
313.14 K, 17000 kPa, x2 = 0.7995	671.4
313.14 K, 17000 kPa, x2 = 0.9308	664.33
